Reference: patent US9346761B2, “Arginine methyltransferase inhibitors and uses thereof” (Epizyme, Inc., priority 2013, dated 2016)
Structures can show the parent of a compound that is named as a salt.

Target: T1, Human CARM1 (PRMT4) (Homo sapiens, UniProt Q86X55)
T1 construct: Flag-CARM1-His was eluted with 200 ug/ml FLAG peptide in buffer A; made in house; host or cells: HEK 293F cells (BacMam virus, pFastBacMam)
T1 sequence (Q86X55 with tags, fused parts or gaps isoform Q86X55-1): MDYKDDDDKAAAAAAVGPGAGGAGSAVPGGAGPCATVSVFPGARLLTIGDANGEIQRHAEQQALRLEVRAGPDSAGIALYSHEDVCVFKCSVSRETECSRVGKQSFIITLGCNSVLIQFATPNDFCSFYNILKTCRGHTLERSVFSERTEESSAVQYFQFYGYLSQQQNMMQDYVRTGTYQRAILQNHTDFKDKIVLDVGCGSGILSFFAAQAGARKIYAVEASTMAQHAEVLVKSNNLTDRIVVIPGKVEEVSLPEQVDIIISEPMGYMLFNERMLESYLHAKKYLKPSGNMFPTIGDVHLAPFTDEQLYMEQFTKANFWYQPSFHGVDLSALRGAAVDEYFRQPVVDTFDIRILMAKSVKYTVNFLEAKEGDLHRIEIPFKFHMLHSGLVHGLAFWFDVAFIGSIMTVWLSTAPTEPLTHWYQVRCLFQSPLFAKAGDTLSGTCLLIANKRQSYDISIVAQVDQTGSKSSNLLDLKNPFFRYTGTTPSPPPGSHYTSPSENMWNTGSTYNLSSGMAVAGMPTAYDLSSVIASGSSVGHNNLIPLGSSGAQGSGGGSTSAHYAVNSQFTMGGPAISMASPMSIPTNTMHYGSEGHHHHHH
Test: CARM1 biochemical assay (3H-SAM Flashplate, peptide substrate)
Excerpt: General Materials. S-adenosylmethionine (SAM), S-adenosylhomocysteine (SAH), bicine, Tween20, dimethylsulfoxide (DMSO), bovine skin gelatin (BSG), sodium butyrate and Tris(2-carboxyethyl)phosphine hydrochloride solution (TCEP) were purchased from Sigma-Aldrich at the highest level of purity possible. ^3H-SAM was purchase from American Radiolabeled Chemicals with a specific activity of 80 Ci/mmol. 384-well streptavidin Flashplates were purchased from PerkinElmer.
Substrates. Peptide representative of human histone H3 residues 16-30 was synthesized with an N-terminal linker-affinity tag motif and a C-terminal amide cap by 21st Century Biochemicals.
Protein Expression. Recombinant baculovirus were generated according to Bac-to-Bac kit instructions (Life Technologies). […] Infections were carried out at 37° C. for 48 hours, harvested by centrifugation, and stored at −80° C. for purification.
Protein Purification. […] Column was washed with 500 mM NaCl in buffer A and Flag-CARM1-His was eluted with 200 ug/ml FLAG peptide in buffer A. Pooled fractions were dialyzed in 20 mM Tris, 150 mM NaCl, 5% glycerol and 1 mM DTT, pH 7.8.
General Procedure for CARM1 Enzyme Assays on Peptide Substrates. The assays were all performed in a buffer consisting of 20 mM Bicine (pH=7.6), 1 mM TCEP, 0.005% BSG, and 0.002% Tween 20, prepared on the day of use. […] DMSO (1 ul) was added to Columns 11, 12, 23, 24, rows A-H for the maximum signal control and 1 ul of SAH, a known product and inhibitor of CARM1, was added to columns 11, 12, 23, 24, rows I-P for the minimum signal control. A cocktail (40 ul) containing the CARM1 enzyme was added by Multidrop Combi (Thermo-Fisher). The compounds were allowed to incubate with CARM1 for 30 min at room temperature, then a cocktail (10 ul) containing ^3H-SAM and peptide was added to initiate the reaction (final volume=51 ul). […] The assays were stopped by the addition of non-radiolabeled SAM (10 ul) to a final concentration of 300 uM, which dilutes the ^3H-SAM to a level where its incorporation into the peptide substrate is no longer detectable. 50 ul of the reaction in the 384-well polypropylene plate was then transferred to a 384-well Flashplate and the biotinylated peptides were allowed to bind to the streptavidin surface for at least 1 hour before being washed once with 0.1% Tween20 in a Biotek ELx405 plate washer. The plates were then read in a PerkinElmer TopCount plate reader to measure the quantity of ^3H-labeled peptide bound to the Flashplate surface, measured as disintegrations per minute (dpm) or alternatively, referred to as counts per minute (cpm).
Where dpm=disintegrations per minute, cmpd=signal in assay well, and min and max are the respective minimum and maximum signal controls.
Where top and bottom are the normally allowed to float, but may be fixed at 100 or 0 respectively in a 3-parameter fit. The Hill Coefficient normally allowed to float but may also be fixed at 1 in a 3-parameter fit. Y is the % inhibition and X is the compound concentration.

| Structure (SMILES) | IC50 [nM] |
| --- | --- |
| CNCCN(C)Cc1cn(C2CC2)nc1-c1ccc(F)cc1 [Compound 13] | 1010 to 3000 |
| CNCCN(C)Cc1cnn(C2CC2)c1-c1ccc(F)cc1 [Compound 14] | 101 to 1000 |
| CNCCN(C)Cc1cn(C(C)C)nc1-c1ccc(F)cc1 [Compound 15] | 3010 to 10000 |
| CNCCN(C)Cc1cnn(C(C)C)c1-c1ccc(F)cc1 [Compound 16] | 3010 to 10000 |
| CNCCN(C)Cc1cn[nH]c1-c1ccc(C#N)cc1 [Compound 17] | 1010 to 3000 |
| CNCCN(C)Cc1cn[nH]c1-c1cc(F)cc(F)c1 [Compound 18] | 101 to 1000 |
| CCCc1ccc(-c2n[nH]cc2CN(C)CCNC)cc1 [Compound 20] | 101 to 1000 |
| CNCCN(C)Cc1c[nH]nc1-c1cccc([N+](=O)[O-])c1 [Compound 21] | 1010 to 3000 |
| CNCCN(C)Cc1c[nH]nc1-c1cccc(C#N)c1 [Compound 22] | 1010 to 3000 |
| CNCCN(C)Cc1c[nH]nc1-c1ccccc1OC [Compound 23] | 1010 to 3000 |
| CNCCN(C)Cc1c[nH]nc1-c1cccc(OC)c1 [Compound 24] | 1010 to 3000 |
| CNCCN(C)Cc1c[nH]nc1-c1ccc(OC)cc1 [Compound 25] | 1010 to 3000 |
| CNCCN(C)Cc1c[nH]nc1-c1cccc(O)c1 [Compound 26] | 1010 to 3000 |
| CNCCN(C)Cc1c[nH]nc1-c1ccc(O)cc1 [Compound 27] | 1010 to 3000 |
| CNCCN(C)Cc1c[nH]nc1-c1ccc(CO)cc1 [Compound 28] | 101 to 1000 |
| CNCCN(C)Cc1c[nH]nc1-c1ccc(C)cc1C [Compound 29] | 3010 to 10000 |
| CNCCN(C)Cc1cn(CCCC(O)CO)nc1-c1ccc(F)cc1 (centres unmarked) [Compound 30] | 3010 to 10000 |
| CNCCN(C)Cc1cnn(CCCC(O)CO)c1-c1ccc(F)cc1 (centres unmarked) [Compound 31] | 1010 to 3000 |
| CNCCN(C)Cc1c[nH]nc1-c1ccc(N)cc1 [Compound 33] | 1010 to 3000 |
| CNCCN(C)Cc1c[nH]nc1-c1ccc(Oc2ccccc2)cc1 [Compound 37] | < 100 |
| CNCCN(C)Cc1c[nH]nc1-c1ccccc1C(F)(F)F [Compound 38] | > 10000 |
| CNCCN(C)Cc1c[nH]nc1-c1ccccc1OC(F)(F)F [Compound 40] | > 10000 |

| Structure (SMILES) | IC50 [nM] |
| --- | --- |
| CCNC(=O)c1cccc(-c2n[nH]cc2CN(C)CCNC)c1 [Compound 43] | 3010 to 10000 |
| CCn1cc(CN(C)CCNC)c(-c2ccc(OC(C)C)cc2)n1 [Compound 213] | 101 to 1000 |
| CNCCN(C)Cc1cn(C2CCCC2)nc1-c1ccc(OC(C)C)cc1 [Compound 214] | 101 to 1000 |
| CNCCN(C)Cc1cn(C2CCOC2)nc1-c1ccc(OC(C)C)cc1 (centres unmarked) [Compound 215] | 101 to 1000 |
| CNCCN(C)Cc1cnn(C2CCOC2)c1-c1ccc(OC(C)C)cc1 (centres unmarked) [Compound 216] | 101 to 1000 |
| CNCCN(C)Cc1cn(Cc2ccccc2)nc1-c1ccc(OC(C)C)cc1 [Compound 217] | 101 to 1000 |
| C=CCn1cc(CN(C)CCNC)c(-c2ccc(OC(C)C)cc2)n1 [Compound 218] | 101 to 1000 |
| C=CCn1ncc(CN(C)CCNC)c1-c1ccc(OC(C)C)cc1 [Compound 219] | 101 to 1000 |
| CNCCN(C)Cc1cn(C)nc1-c1ccc(OC(C)C)cc1 [Compound 243, N1-((3-(4-isopropoxyphenyl)-1-methyl-1H-pyrazol-4-yl)methyl)-N1,N2-dimethylethane-1,2-diamine] | 101 to 1000 |
| CNCCN(C)Cc1cn(Cc2cccnc2)nc1-c1ccc(OC(C)C)cc1 [Compound 246] | 1010 to 3000 |
| CNCCN(C)Cc1cn(Cc2ccccn2)nc1-c1ccc(OC(C)C)cc1 [Compound 247] | 1010 to 3000 |
| CNCCN(C)Cc1cn(CC(=O)OC)nc1-c1ccc(OC(C)C)cc1 [Compound 248] | 3010 to 10000 |
| CNCCN(C)Cc1cnn(CC(=O)OC)c1-c1ccc(OC(C)C)cc1 [Compound 249] | 3010 to 10000 |
| CNCCN(C)Cc1cn(CC(=O)O)nc1-c1ccc(OC(C)C)cc1 [Compound 250] | > 10000 |
| CNCCN(C)Cc1cn(CC(N)=O)nc1-c1ccc(OC(C)C)cc1 [Compound 251] | 1010 to 3000 |
| CCn1ncc(CN(C)CCNC)c1-c1ccc(OC(C)C)cc1 [Compound 252] | 101 to 1000 |
| CNCCN(C)Cc1cn(CCOC)nc1-c1ccc(OC(C)C)cc1 [Compound 253, N1-((3-(4-isopropoxyphenyl)-1-(2-methoxyethyl)-1H-pyrazol-4-yl)methyl)-N1,N2-dimethylethane-1,2-diamine hydrochloride] | 1010 to 3000 |
| CNCCN(C)Cc1cn(C2CCC2)nc1-c1ccc(OC(C)C)cc1 [Compound 254, N1-((1-cyclobutyl-3-(4-isopropoxyphenyl)-1H-pyrazol-4-yl)methyl)-N1,N2-dimethylethane-1,2-diamine hydrochloride] | 101 to 1000 |
| CNCCN(C)Cc1cnn(C2CCCC2)c1-c1ccc(OC(C)C)cc1 [Compound 255] | 1010 to 3000 |
| CNCCN(C)Cc1cn(C2CCCCC2)nc1-c1ccc(OC(C)C)cc1 [Compound 256] | 101 to 1000 |
| C=C(C)C(=O)Nc1cccc(-c2[nH]ncc2CN(C)CCNC)c1 [Compound 257] | > 10000 |
| C=CC(=O)Nc1cccc(-c2[nH]ncc2CN(C)CCNC)c1 [Compound 258] | 1010 to 3000 |
